Laboratory results reported in PubChem BioAssay (NCI).
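Growth conditions: 96-well plates. Treatment: test compound, 48 hours, 5 concentrations. Analysis: linear interpolation between bracketing concentrations; unreached endpoints set to highest concentration. TGI denotes the concentration required for complete inhibition of growth.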

Legend:
Test in all cases: growth of human tumour cells (NCI), 48 h
[1] = tested on: M14 melanoma
[2] = tested on: OVCAR-4 ovarian
[3] = tested on: MDA-MB-435
[4] = tested on: KM12 colon
[5] = tested on: COLO 205 colon
[6] = tested on: HCT-116 colon
[7] = tested on: SF-295 CNS
[8] = tested on: SNB-19 CNS
[9] = tested on: OVCAR-5 ovarian
[10] = tested on: SK-OV-3 ovarian
[11] = tested on: SF-539 CNS
[12] = tested on: SR leukemia
[13] = tested on: HT29 colon
[14] = tested on: 786-0 renal
[15] = tested on: NCI/ADR-RES ovarian
[16] = tested on: MALME-3M melanoma
[17] = tested on: UO-31 renal
[18] = tested on: SF-268 CNS
[19] = tested on: CCRF-CEM leukemia
[20] = tested on: SW-620 colon
[21] = tested on: A549 NSCLC
[22] = tested on: HCC-2998 colon
[23] = tested on: SK-MEL-2 melanoma
[24] = tested on: LOX IMVI melanoma
[25] = tested on: HCT-15 colon
[26] = tested on: PC-3 prostate
[27] = tested on: MOLT-4 leukemia
[28] = tested on: SN12C renal
[29] = tested on: UACC-62 melanoma
[30] = tested on: MDA-MB-231 breast
[31] = tested on: RPMI-8226 leukemia
[32] = tested on: UACC-257 melanoma
[33] = tested on: OVCAR-8 ovarian
[34] = tested on: T-47D breast
[35] = tested on: NCI-H226 lung
[36] = tested on: MCF7 breast
[37] = tested on: SK-MEL-5 melanoma
[38] = tested on: TK-10 renal
[39] = tested on: IGROV1 ovarian
[40] = tested on: NCI-H460 lung
[41] = tested on: HOP-62 NSCLC
[42] = tested on: MDA-N
[43] = tested on: CAKI-1 renal
[44] = tested on: A498 renal
[45] = tested on: HL-60(TB) leukemia
[46] = tested on: NCI-H522 lung
[47] = tested on: K-562 leukemia
[48] = tested on: U251 CNS
[49] = tested on: SNB-75 CNS
[50] = tested on: SK-MEL-28 melanoma
[51] = tested on: ACHN renal
[52] = tested on: DU-145 prostate
[53] = tested on: OVCAR-3 ovarian
[54] = tested on: RXF 393 renal
[55] = tested on: NCI-H23 lung
[56] = tested on: HS 578T breast
[57] = tested on: HOP-92 NSCLC
[58] = tested on: EKVX NSCLC

Measured: TGI

C=C=C(C)[Si](C)(C)C
not listed: [57] | [58]
> 100 µM: all other assays above

O=C1Nc2ccccc2C1Cc1ccccc1 (centres undefined)
not listed: [7] | [15] | [28] | [30] | [54]
> 100 µM: all other assays above
